Here are results for two molecules from patent publication US11660310B2, “Low dose combination CDA substrate drug/cedazuridine with extended administration” (Otsuka Pharmaceutical Co., Ltd., priority 2018, dated 2023).

For series [1], the system named is sickle cell disease model. To be noted: sickle cell disease model in baboons; Am. J. Hematol. 1985; cited from earlier work.
The next series can be described thus: clinical. The conditions noted are these: human, in vivo, iv, 20 mg/m2, 5-Days total (AUClast) IV.

The structures appear in SMILES notation.

For `O=C1NC(O)CCN1[C@@H]1O[C@H](CO)[C@@H](O)[C@H]1O` (some centres unmarked) [Tetrahydrouridine], in series [1], the “effect on the potency of decitabine” value is on record as “improve the potency of decitabine”.
As to `Nc1ncn([C@H]2C[C@H](O)[C@@H](CO)O2)c(=O)n1` [decitabine, 5-aza-2′-deoxycytidine], the AUC(0-t) (commonly the area under the concentration-time curve up to a stated or last time point) in “clinical” came out at 0.852 µg·h/mL.
